# Measurements from a melting point compilation (Tetko et al.).
row,SMILES,melting point
1,ON=Cc1ccc(Cl)cc1,100 to 102 °C
2,N#CCCCCCCCCC#N,7 °C
3,O=CC(C=O)c1ccc(Cl)cc1[N+](=O)[O-],137 to 143 °C
4,Cc1nnc(SCc2ccccc2)n1N=Cc1ccc(N(C)C)cc1,47 to 49 °C
5,CN(C)c1ccc(C=Cc2nc3ccccc3s2)cc1,210 °C
6,Ic1ccc2[nH]ccc2c1,99 °C
7,Clc1nc(Cl)nc(Cl)n1,154 °C
8,O=S(=O)(Cl)c1ccc(Oc2ccccc2Cl)cc1,89 to 90 °C
9,O=S(=O)(Cl)c1cc(OCC(F)(F)F)ccc1OCC(F)(F)F,47 to 50 °C
10,Cc1c(C)c2c(c(C)c1O)CCC(C)(CCCC(C)CCCC(C)CCCC(C)C)O2 (centres undefined),2.5 to 3.5 °C
11,CC1(C)CC1,-109 °C
12,c1ccc(P(CCP(c2ccccc2)c2ccccc2)c2ccccc2)cc1,141 °C
13,N#CC(C#N)=C1CC(c2ccc(Cl)cc2)=C(C#N)C(=N)N1c1ccccc1,290 to 295 °C
14,Cc1nn(-c2ccccc2)c(C)c1CO,106 to 110 °C
15,CCCCNC(=O)C(C(F)(F)F)C(F)(F)F,94 °C
16,O=C(Cc1ccc(/N=C/c2ccccc2)cc1)c1ccc(/N=C/c2ccccc2)cc1,181 °C
17,O=S(=O)(Cl)c1ccc(Oc2ccccc2)cc1,44 °C
18,Cc1cc(I)c(C)c(C)c1C,31 °C
19,N#Cc1ccc(C(c2ccc(C#N)cc2)n2cncn2)cc1,181 °C

row,SMILES,melting point
1,CC(=O)OC1CCC2C3CC=C4CC5(CCC4(C)C3CCC12C)OCCO5 (centres undefined),196 °C
2,O=CC(Cl)=C(Cl)C(=O)O,127 °C
3,C1CCC2C(C1)CCC1C3CCCCC3CCC21 (centres undefined),115 °C
4,Cc1ccc([N+](=O)[O-])c(C)n1,32 to 38 °C
5,ClCc1csc(-c2cccs2)n1,52 to 56 °C
6,CCCCC(CC)CCl (centres undefined),-70 °C
7,CC1CN(C2CCCCCCCCCCC2)CC(C)O1 (centres undefined),71 °C
8,CCCCCCCCCCCCOc1ccc(C=O)cc1,28 °C
9,CCC(c1ccc(O)c(C)c1)C(CC)c1ccc(O)c(C)c1 (centres undefined),145 °C
10,Cc1ccc(N(CCO)CCO)cc1N=Nc1ccc([N+](=O)[O-])cc1,160 °C
11,COc1ccccc1-c1ccc(/C=C2\N=C(c3ccccc3)OC2=O)o1,170 °C
12,Oc1cccc(-c2ccccc2)c1,78 °C
13,O=[N+]([O-])c1cc(Cl)cnc1Cl,38 to 42 °C
14,O=C(O)C(Br)Br,49 °C
15,Clc1nccc2ccccc12,34 °C
16,O=C(CC(c1ccccc1)c1ccccc1)c1ccccc1,96 °C
17,Cc1nc([N+](=O)[O-])cn1C(C)C,86 °C
18,CCCCCCCCCCC#N,-6 °C
19,CC1OC(OC2C(Oc3cc(O)c4c(c3)OC(c3ccc(O)cc3)CC4=O)OC(CO)C(O)C2O)C(O)C(O)C1O (centres undefined),166 °C

row,SMILES,melting point
1,CCCCCCCCCCCCCC(C)C,-7 °C
2,O=C(O)c1nc(Cl)ccc1Cl,151 °C
3,COc1ccc(Cn2cncn2)cc1,41.5 °C
4,CCC(C)C(C)(COC(N)=O)COC(N)=O (centres undefined),77 °C
5,CCNc1ccc2c(C(F)(F)F)cc(=O)oc2c1,158 to 159 °C
6,N#CCCN(CCC#N)c1ccccc1,80 to 88 °C
7,Cc1ccc2cc(C)ccc2c1,112 °C
8,C(=C\P(c1ccccc1)c1ccccc1)/P(c1ccccc1)c1ccccc1,123 to 128 °C
9,C1CSC2=C(S1)SC(=C1SC3=C(SCCS3)S1)S2,244 °C
10,O=C(Cc1cc(CC(=O)Nc2ccccc2)c([N+](=O)[O-])cc1[N+](=O)[O-])Nc1ccccc1,267 °C
11,c1ccc(CC(=NNc2cccc(NN=C(Cc3ccccc3)c3ccccc3)c2)c2ccccc2)cc1,164 °C
12,CN(CC=CC#CC(C)(C)C)Cc1cccc2ccccc12,196 °C
13,CC(O)[C@@]1(O)CC[C@H]2[C@@H]3CCC4(C)C[C@H](O)CC[C@]4(C)[C@H]3CC[C@@]21C (some centres undefined),254 to 255 °C
14,CCC(C)(C)OC(N)=O,86 °C
15,CC(C)=CCCC=C(C)C,-74.4 °C
16,CCCCCCCOc1ccc(N=[N+]([O-])c2ccc(OCCCCCCC)cc2)cc1,73 to 122 °C
17,OCc1cccc(Oc2ccccn2)c1,57 to 59 °C
18,CCC(CO)[N+](=O)[O-] (centres undefined),-47 °C
19,Cc1nc2ccc([N+](=O)[O-])cc2o1,155 °C

# The remaining lines, values ahead:
row,melting point,SMILES
1,183 °C,C=C1C(=O)C23C(OC)CC4C5(C)CCCC4(COC5)C2C(OC(C)=O)CC1C3O (centres undefined)
2,202 to 203 °C,O=Cc1c[nH]c2cc(Br)ccc12
3,202 to 204 °C,Nc1c(C(=O)O)sc2ncccc12
4,218 °C,Nc1ccn(C2CCC(CO)O2)c(=O)n1 (centres undefined)
5,286 to 293 °C,O=C(O)c1ccc(CN2CCCCC2)cc1
6,108 to 111 °C,CC12CCCCC1CCC1C2CCC2(C)C1CCC2(O)C#Cc1ccccc1 (centres undefined)
7,-5.9 °C,CCCCOC(=O)c1ccccc1O
8,93 to 94 °C,Oc1ccc2ccccc2c1CN1CCCCC1
9,174 °C,CCOC(=O)Nc1ccc2cc3ccc4c(c3nc2c1)COCN4C(=O)OCC
10,59.5 °C,O=C(c1ccccc1O)c1ccccc1O
11,180 °C,CCc1c(C)[nH]c2c1C(=O)C(CN1CCOCC1)CC2 (centres undefined)
12,189 °C,Cc1c(C)c2c(c(C)c1O)CCC(C)(C(=O)O)O2 (centres undefined)
13,120 to 123 °C,CCCNC(N)=S
14,100 to 102 °C,CC(C)CC1(NC(=O)c2ccccc2)COCOC1=O (racemic)
15,45 °C,CC(CN(C)C)CN1c2ccccc2CCc2ccccc21 (centres undefined)
16,100 to 102 °C,CCc1cc(C(=O)c2ccc(OC)cc2)c(N)s1
17,50 to 52 °C,CCOC(=O)c1ccc(OC)c(OC)c1Cl
18,147 to 150 °C,CC(=O)C1C(=O)c2cccc([N+](=O)[O-])c2C1=O (centres undefined)
19,139 °C,O=C(Cl)c1sc(-c2ccccc2)nc1-c1ccccc1
20,39 to 45 °C,O=C1C=C[C@H](CO)O1
21,85 to 86 °C,BrCCOc1cccc2c1OCCO2
22,90 to 94 °C,O=C(O)C1CCCN(C(=O)OCc2ccccc2)C1 (centres undefined)
23,-42.3 °C,CCCCCCCCOC(=O)CCCC
24,222 °C,CN(C)C1C(=O)C(=C(N)O)C(=O)C2(O)C(=O)C3=C(O)c4c(O)ccc(Cl)c4C(O)C3CC12 (centres undefined)

row,melting point,SMILES
1,148 °C,CC12CCCC1C1CCC3CC(Cc4ccccc4)CCC3(C)C1CC2 (centres undefined)
2,47.5 °C,O=C(CCCl)c1ccc(F)cc1
3,67.5 °C,COc1ccccc1N1CCN(CCCC(=O)c2ccc(F)cc2)CC1
4,22 °C,O=[N+]([O-])c1ccc(Cl)c(C(F)(F)F)c1
5,234 °C,COC(=O)CCC(C)C1CCC2=C3CCC4CC(OC(C)=O)CCC4(C)C3CC(OC(C)=O)C21C (centres undefined)
6,380 °C,O=C(O)c1cc(C(=O)O)cc(C(=O)O)c1
7,232 °C,O=c1[nH]cccc1[N+](=O)[O-]
8,172 °C,c1cc2[nH]cnc2cn1
9,176 °C,CSc1cc2c(c3c1CCOc1ccccc1-3)c(=O)n(-c1ccccc1)n2C
10,107 to 111 °C,C[C@@](O)(CC(=O)O)C(=O)O
11,141 °C,CC12CCC(C(C(Br)c3ccccc3)OC1=O)C2(C)C (centres undefined)
12,83.5 °C,Nc1ccccc1CO
13,71 to 72 °C,O=C(CBr)c1cccc2c1OCCO2
14,120 to 122 °C,CCOC(=O)c1c(-c2ccc(Br)cc2)csc1N
15,132 to 133 °C,c1n[nH]c2c1CSC2
16,36 °C,CCN(CC)C(=O)c1ccccc1C(=O)N(CC)CC
17,114 to 116 °C,COc1ccc(OCC(N)=O)cc1
18,332 °C,NC(=O)c1ccc(C(N)=O)cc1
19,115 to 118 °C,NC(=O)c1ccccc1N1CCCCC1
20,156 °C,CC(C)(C)c1ccc(C2CCC3(CC2)Cc2ccc(O)cc2C3)cc1 (centres undefined)
21,2 °C,OC1CCCCCC1
22,143 °C,CC(=O)c1c2c(c(C(C)=O)c3c1CCCN3)NCCC2
23,225 to 226 °C,Nc1ccc(-c2cn3c(n2)SCC3)cc1
24,110 °C,Nc1ccncc1C=O

row,melting point,SMILES
1,181 to 183 °C,NNC(=O)c1sc2ccccc2c1Cl
2,101 to 103 °C,CCOC(=O)c1nc(-c2cncc(Br)c2)no1
3,97 to 99 °C,O=C(O)CCc1ccc(Cl)c(Cl)c1
4,235 to 240 °C,Cc1ncnc2[nH]cnc12
5,203 to 205 °C,NC(=O)C1=CNCCC1
6,233 °C,Nc1ccn(C2OC(COP(=O)(O)O)C(O)C2O)c(=O)n1 (centres undefined)
7,174 °C,CC(=O)c1ccc(NC(=O)C(C(F)(F)F)C(F)(F)F)cc1
8,116 to 117 °C,COC(=O)c1ccc(CS(=O)(=O)Cl)cc1
9,200 °C,CCOC(=O)c1nn(-c2ccc(C)cc2)c(C)c1C(=O)C1=NOC2C(=O)N(c3ccccc3C)C(=O)C12 (centres undefined)
10,150 to 155 °C,O=C(O)CC(c1ccccc1)c1ccccc1
11,269 to 270 °C,CCOC(=O)c1cn[nH]c1NC(=O)Nc1ccc(Cl)c(Cl)c1
12,185 °C,Oc1c(-c2ccccn2)n(N2CCCCC2)c2ccccc12
13,160 to 165 °C,Nc1cc(Br)cnc1N
14,57 °C,Nc1ncc(F)cc1F
15,45 to 47 °C,O=C(OCc1ccccc1)c1cnc(Cl)nc1C(F)(F)F
16,10 °C,CC1(C)CC(N)CC(C)(CN)C1 (centres undefined)
17,268 to 270 °C,O=C(Nc1ccc(F)cc1)Nc1nnc(-c2ccc(Cl)cc2)o1
18,229 to 233 °C,O=C(O)CCc1ccc(CCC(=O)O)cc1
19,148 °C,CC(=O)OCC1C(=O)C2(C)CCC1C2(C)C (centres undefined)
20,225 °C,C/C(=N/Nc1ccccc1)C1=Cc2ccccc2C1
21,132 to 134 °C,Oc1cccc2c1CCCC2O (centres undefined)
22,129 °C,CC(=O)N1c2ccccc2CC1c1ccccc1 (centres undefined)
23,70 to 71 °C,OCc1ccc(N2CCCCC2)nc1
24,117 to 118 °C,Nc1cccc(S(=O)(=O)N2CCCCC2)c1
